Measured values: patent US20240101576A1, “HETEROCYCLIC INHIBITORS OF EGFR AND/OR HER2, FOR USE IN THE TREATMENT OF CANCER” (Scorpion Therapeutics, Inc., priority 2020, published 2024)

What was measured:
Format in all cases: cell-based
[1] = target: T1, EGFR WT (Ba/F3 cells) (Homo sapiens, UniProt P00533); assay: Inhibitor activity on EGFR-dependent cell growth (CellTiter-Glo, 72 h), Ba/F3 EGFR WT; conditions: read-out: BaF3 WT IC50
T1 construct: expressed in transfected cells; host or cells: Ba/F3 (murine pro-B cells), retroviral transduction, puromycin selection, maintained with EGF
T1 sequence (P00533 25-1210): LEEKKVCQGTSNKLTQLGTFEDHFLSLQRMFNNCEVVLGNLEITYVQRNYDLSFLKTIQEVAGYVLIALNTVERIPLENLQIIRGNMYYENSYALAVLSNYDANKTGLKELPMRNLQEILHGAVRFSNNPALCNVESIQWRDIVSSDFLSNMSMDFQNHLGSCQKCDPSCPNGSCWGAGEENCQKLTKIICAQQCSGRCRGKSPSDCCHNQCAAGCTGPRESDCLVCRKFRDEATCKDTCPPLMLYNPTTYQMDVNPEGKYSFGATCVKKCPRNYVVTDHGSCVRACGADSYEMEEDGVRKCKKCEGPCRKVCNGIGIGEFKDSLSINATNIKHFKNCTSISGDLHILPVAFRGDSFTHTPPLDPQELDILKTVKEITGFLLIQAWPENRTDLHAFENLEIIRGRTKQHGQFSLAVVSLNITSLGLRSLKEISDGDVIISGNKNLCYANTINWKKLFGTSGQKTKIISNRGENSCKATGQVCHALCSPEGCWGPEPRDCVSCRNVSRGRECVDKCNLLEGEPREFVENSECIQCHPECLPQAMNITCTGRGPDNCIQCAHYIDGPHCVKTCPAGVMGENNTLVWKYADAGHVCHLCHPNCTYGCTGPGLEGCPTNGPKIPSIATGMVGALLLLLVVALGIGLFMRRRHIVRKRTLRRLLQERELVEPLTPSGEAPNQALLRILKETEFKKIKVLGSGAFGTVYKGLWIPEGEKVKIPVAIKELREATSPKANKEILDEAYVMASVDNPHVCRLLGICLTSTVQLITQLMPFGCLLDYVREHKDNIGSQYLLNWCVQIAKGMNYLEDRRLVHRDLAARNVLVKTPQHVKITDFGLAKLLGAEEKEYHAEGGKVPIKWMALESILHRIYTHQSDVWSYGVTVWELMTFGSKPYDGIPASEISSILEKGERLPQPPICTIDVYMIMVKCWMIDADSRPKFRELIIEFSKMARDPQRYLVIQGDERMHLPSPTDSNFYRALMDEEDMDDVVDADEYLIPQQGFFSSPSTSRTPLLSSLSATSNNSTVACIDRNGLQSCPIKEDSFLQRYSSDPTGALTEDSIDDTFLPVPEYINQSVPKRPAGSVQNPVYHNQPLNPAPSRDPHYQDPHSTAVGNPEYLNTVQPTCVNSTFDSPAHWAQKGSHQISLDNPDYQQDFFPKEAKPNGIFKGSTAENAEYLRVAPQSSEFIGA
How it was run: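 This growth assay used Ba/F3 cells that depend on wild-type EGFR and are kept in EGF without IL3. Compounds were made up as 10 mM DMSO stocks and diluted 3-fold over 10 points. 120 nL went onto 600 cells/well. After 72 hours, 40 μL CellTiter-Glo was added and luminescence read on EnVision after 30 min.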

[2] = target: T2, EGFR exon 20 NPG Ins D770_N771 (Ba/F3 cells) (Homo sapiens, UniProt P00533, INS770NPG); assay: Inhibitor activity on EGFR-dependent cell growth (CellTiter-Glo, 72 h), Ba/F3 EGFR exon 20 NPG Ins; conditions: read-out: BaF3 NPG IC50
T2 construct: expressed in transfected cells; host or cells: Ba/F3 (murine pro-B cells), retroviral transduction, puromycin selection, IL3-independent pool
T2 sequence (P00533 with tags, fused parts or gaps INS770NPG): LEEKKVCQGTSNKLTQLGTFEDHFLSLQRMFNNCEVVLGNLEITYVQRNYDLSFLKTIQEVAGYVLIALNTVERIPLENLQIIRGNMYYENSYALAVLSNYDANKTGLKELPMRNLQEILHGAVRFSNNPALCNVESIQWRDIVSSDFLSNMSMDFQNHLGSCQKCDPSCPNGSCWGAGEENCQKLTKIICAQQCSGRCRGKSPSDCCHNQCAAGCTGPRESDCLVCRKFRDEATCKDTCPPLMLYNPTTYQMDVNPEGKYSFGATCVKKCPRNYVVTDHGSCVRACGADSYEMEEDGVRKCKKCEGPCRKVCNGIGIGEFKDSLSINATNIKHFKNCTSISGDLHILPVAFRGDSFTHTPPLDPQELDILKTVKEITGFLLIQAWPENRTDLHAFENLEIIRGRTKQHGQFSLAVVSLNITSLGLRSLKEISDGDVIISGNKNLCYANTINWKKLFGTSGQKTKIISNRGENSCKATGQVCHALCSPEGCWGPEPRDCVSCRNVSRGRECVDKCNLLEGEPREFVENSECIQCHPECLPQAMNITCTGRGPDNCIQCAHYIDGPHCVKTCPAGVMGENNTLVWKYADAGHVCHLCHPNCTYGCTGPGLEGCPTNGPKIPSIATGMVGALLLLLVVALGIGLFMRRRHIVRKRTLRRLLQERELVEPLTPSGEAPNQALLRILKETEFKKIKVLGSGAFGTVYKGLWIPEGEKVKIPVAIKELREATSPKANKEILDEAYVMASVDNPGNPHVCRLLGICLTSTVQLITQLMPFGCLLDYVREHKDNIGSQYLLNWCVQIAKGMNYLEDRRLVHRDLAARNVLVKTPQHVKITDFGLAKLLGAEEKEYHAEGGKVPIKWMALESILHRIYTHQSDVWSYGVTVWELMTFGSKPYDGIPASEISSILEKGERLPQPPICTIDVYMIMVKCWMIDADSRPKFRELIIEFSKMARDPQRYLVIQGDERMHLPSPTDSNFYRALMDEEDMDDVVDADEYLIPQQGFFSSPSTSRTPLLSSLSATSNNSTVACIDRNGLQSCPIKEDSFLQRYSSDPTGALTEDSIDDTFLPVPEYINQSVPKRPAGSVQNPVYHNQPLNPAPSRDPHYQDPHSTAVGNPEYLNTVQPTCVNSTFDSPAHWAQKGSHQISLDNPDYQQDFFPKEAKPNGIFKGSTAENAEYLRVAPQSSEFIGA
How it was run: (§1)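 IC50s derive from a sigmoidal dose–response fit of CellTiter-Glo signal. The signal was normalised between […]-treated cells and cell-free medium. Ba/F3 mutant-EGFR cells, seeded at 400–800/well depending on the line, had 72 h of exposure to a 10-point, 3-fold compound series.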

[3] = target: T3, EGFR exon 20 ASV Ins V769_D770 (Ba/F3 cells) (Homo sapiens, UniProt P00533, INS769ASV); assay: Inhibitor activity on EGFR-dependent cell growth (CellTiter-Glo, 72 h), Ba/F3 EGFR exon 20 ASV Ins; conditions: read-out: BaF3 ASV IC50
T3 construct: expressed in transfected cells; host or cells: Ba/F3 (murine pro-B cells), retroviral transduction, puromycin selection, IL3-independent pool
T3 sequence (P00533 with tags, fused parts or gaps INS769ASV): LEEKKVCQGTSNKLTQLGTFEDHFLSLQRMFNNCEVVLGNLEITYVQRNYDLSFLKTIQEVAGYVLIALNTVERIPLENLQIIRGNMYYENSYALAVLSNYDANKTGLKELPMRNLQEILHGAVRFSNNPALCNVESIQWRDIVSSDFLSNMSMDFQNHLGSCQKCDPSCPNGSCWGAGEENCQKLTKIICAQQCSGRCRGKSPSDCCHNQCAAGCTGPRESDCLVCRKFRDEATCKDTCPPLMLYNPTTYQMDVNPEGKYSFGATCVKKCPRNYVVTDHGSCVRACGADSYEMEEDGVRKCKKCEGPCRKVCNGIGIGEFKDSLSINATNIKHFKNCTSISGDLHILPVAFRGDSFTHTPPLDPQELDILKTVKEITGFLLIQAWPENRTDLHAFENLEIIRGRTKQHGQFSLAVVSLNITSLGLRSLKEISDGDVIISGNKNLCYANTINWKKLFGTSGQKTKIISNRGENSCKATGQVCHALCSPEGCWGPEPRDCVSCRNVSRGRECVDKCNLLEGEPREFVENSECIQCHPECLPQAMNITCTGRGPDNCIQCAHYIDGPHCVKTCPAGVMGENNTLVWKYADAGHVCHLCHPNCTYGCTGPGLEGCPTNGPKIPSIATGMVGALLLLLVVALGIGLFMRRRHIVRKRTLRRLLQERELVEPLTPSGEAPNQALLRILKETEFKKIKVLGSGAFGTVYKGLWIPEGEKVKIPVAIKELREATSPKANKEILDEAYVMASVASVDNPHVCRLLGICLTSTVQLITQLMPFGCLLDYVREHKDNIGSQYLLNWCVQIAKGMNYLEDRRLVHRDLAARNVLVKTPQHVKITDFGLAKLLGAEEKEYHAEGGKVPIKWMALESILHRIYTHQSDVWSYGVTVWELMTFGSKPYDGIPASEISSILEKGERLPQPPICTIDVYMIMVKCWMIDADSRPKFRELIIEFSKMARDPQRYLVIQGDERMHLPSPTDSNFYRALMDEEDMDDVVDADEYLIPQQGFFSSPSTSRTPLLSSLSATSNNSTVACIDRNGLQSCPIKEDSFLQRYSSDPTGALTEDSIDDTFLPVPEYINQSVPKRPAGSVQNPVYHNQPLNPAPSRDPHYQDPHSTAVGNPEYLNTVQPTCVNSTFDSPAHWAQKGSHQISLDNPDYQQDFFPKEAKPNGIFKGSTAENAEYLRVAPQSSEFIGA
How it was run: as §1

[4] = target: T4, EGFR exon 20 SVD Ins D770_N771 (Ba/F3 cells) (Homo sapiens, UniProt P00533, INS770SVD); assay: Inhibitor activity on EGFR-dependent cell growth (CellTiter-Glo, 72 h), Ba/F3 EGFR exon 20 SVD Ins; conditions: read-out: BaF3 SVD IC50
T4 construct: expressed in transfected cells; host or cells: Ba/F3 (murine pro-B cells), retroviral transduction, puromycin selection, IL3-independent pool
T4 sequence (P00533 with tags, fused parts or gaps INS770SVD): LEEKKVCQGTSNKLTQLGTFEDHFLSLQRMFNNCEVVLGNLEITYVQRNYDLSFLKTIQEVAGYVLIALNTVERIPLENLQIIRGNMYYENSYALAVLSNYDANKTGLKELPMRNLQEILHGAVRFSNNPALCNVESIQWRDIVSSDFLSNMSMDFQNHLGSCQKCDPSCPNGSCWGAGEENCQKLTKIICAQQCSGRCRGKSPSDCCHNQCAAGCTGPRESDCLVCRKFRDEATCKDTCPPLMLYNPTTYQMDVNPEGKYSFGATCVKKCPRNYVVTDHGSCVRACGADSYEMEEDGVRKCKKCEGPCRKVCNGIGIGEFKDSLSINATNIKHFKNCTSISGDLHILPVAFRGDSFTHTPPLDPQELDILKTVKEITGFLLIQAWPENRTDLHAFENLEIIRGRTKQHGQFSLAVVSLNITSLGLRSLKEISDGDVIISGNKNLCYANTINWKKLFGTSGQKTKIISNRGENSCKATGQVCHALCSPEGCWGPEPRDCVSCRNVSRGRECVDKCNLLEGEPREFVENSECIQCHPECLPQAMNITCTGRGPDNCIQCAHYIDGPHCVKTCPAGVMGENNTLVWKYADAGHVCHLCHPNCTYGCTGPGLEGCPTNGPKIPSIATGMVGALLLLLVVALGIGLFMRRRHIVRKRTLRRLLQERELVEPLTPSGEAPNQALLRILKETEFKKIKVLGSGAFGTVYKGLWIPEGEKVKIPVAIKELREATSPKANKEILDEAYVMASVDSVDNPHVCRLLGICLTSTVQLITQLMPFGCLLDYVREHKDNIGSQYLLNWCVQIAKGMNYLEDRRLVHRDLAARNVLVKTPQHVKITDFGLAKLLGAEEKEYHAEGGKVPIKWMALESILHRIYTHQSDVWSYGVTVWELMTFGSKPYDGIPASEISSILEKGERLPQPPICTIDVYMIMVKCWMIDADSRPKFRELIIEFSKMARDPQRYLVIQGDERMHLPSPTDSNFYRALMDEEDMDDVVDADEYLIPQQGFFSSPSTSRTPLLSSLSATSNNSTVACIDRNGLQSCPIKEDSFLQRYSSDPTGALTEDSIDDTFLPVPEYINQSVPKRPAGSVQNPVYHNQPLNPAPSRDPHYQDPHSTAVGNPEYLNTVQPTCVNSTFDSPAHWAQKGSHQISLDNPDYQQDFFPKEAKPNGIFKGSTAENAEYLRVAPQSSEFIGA
How it was run: as §1

[5] = target: T5, EGFR exon 20 FQEA Ins A763_V764 (Ba/F3 cells) (Homo sapiens, UniProt P00533, INS763FQEA); assay: Inhibitor activity on EGFR-dependent cell growth (CellTiter-Glo, 72 h), Ba/F3 EGFR exon 20 FQEA Ins; conditions: read-out: BaF3 FQEA IC50
T5 construct: expressed in transfected cells; host or cells: Ba/F3 (murine pro-B cells), retroviral transduction, puromycin selection, IL3-independent pool
How it was run: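 Compounds, serially diluted 3-fold over 10 points in DMSO and added at 120 nL per well, act on Ba/F3 EGFR-mutant cells for 72 h. Seeding is 800 (exon 19del, FQEA), 600 (L858R/C797S) or 400 (L858R) cells/well. CTG luminescence is fitted with a four-parameter logistic curve to give IC50.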

[6] = target: T3, EGFR exon 20 ASV Ins V769_D770 (Ba/F3 cells); assay: Inhibitor activity on EGFR phosphorylation (pEGFR AlphaLISA, 2 h), Ba/F3 EGFR exon 20 ASV Ins
Excerpt: Example B. Inhibitor Activity on EGFR phosphorylation (pEGFR)
EGFR mutant Ba/F3 cells were generated by transduction with retrovirus containing vectors expressing EGFR L858R, EGFR exon 19del, EGFR L858R/C797S, EGFR exon 20 NPG Ins D770_N771, EGFR exon 20 ASV Ins V769_D770, or EGFR exon 20 SVD Ins D770_N771 genes along with a puromycin selection marker. Transduced cells are selected with puromycin for 7 days and are then be transferred into culture media without Interleukin 3 (IL3). Surviving cells are confirmed to express EGFR by Western blot and maintained as a pool. CUTO14 cells were obtained from Dr. Robert C. Doebele at the University of Colorado. The IC50 date are included in Table 6 and Table 7.
1.1 Cells are harvested from flask into cell culture medium and the cell number counted.
1.2 Cells are diluted with culture medium to the desired density and 40 μL of cell suspension is added into each well of 384-well cell culture plate and the seeding density is 50K cells/well (Ba/F3) or 12.5K cells/well (CUTO14).
2 Compound Preparation and Treatment
2.1 Test compounds are dissolved to 10 mM in a DMSO stock solution. 45 μL of stock solution is transferred to a 384 polypropylene plate (pp-plate). Perform 3-fold, 10-point dilution via transferring 15 μL compound into 30 μL DMSO using a TECAN (EVO200) liquid handler.
2.2 Spin plates at room temperature at 1,000 RPM for 1 minute.
2.3 Transfer 5 nL of diluted compound from compound source plate into the cell plate.
2.4 After compound treatment for 2 hours, perform pEGFR detection by AlphaLISA for compound treatment plates as described in “Detection” section.
3 Detection by pEGFR AlphaLISA (Perkin-Elmer)
3.1 Plates are removed from incubators and equilibrated at room temperature for 10 minutes, and media was removed
3.2 10 μL of lysis buffer is added and plates shaken at 600 rpm for 1 hr.
3.3 Prepare acceptor mix just before use and dispense 5 μL of acceptor mix to all the wells. Shake 350 rpm for Ihr in the dark
3.4 Prepare donor mix under low light conditions prior to use. Dispense 5 μL of donor mix to all the wells. Mix well on the shaker, seal and wrap in aluminum foil and incubate 1.5 hrs at room temperature in the dark
3.5 Transfer 18.5 μL mixture to OptiPlate 384, and read using an Envision. The IC50 date were included in Table 6 and Table 7.

[7] = EGFR phosphorylation, AlphaLISA, 2 hours, read-out: ASV IC50 (pEGFR)

Row | IC50 [1] [nM] | IC50 [2] [nM] | IC50 [3] [nM] | IC50 [4] [nM] | IC50 [5] [nM] | IC50 [6, 7] [nM] | Compound | IC50 [6] [nM]
1 | > 1000 | > 1000 | > 1000 | > 1000 | > 1000 | > 1000 | COc1c(F)cccc1Nc1c(-c2snc3cccnc23)[nH]c2c1C(=O)NCC2 [Compound 156, 3-((3-fluoro-2-methoxyphenyl)amino)-2-(isothiazolo[4,3-b]pyridin-3-yl)-1,5,6,7-tetrahydro-4H-pyrrolo[3,2-c]pyridin-4-one] | –
2 | > 1000 | > 1000 | > 1000 | > 1000 | > 1000 | > 1000 | COc1c(F)cccc1Nc1c(-c2nc(N)ncc2F)[nH]c2c1C(=O)NCC2 [Compound 688, 2-(2-amino-5-fluoropyrimidin-4-yl)-3-[(3-fluoro-2-methoxyphenyl)amino]-1H,5H,6H,7H-pyrrolo[3,2-c]pyridin-4-one] | –
3 | < 100 | < 100 | < 100 | < 100 | < 100 | < 100 | COc1c(F)cccc1Nc1c(-c2ccnc3ccc(NC(C)(C)C)nc23)[nH]c2c1C(=O)NCC2 [Compound 694, 2-[6-(tert-butylamino)-1,5-naphthyridin-4-yl]-3-[(3-fluoro-2-methoxyphenyl)amino]-1H,5H,6H,7H-pyrrolo[3,2-c]pyridin-4-one] | –
4 | < 100 | < 100 | < 100 | < 100 | < 100 | < 100 | COc1c(F)cccc1Nc1c(-c2ccnc3ccc(OC4CC4)nc23)[nH]c2c1C(=O)NCC2 [Compound 696, 2-(6-cyclopropoxy-1,5-naphthyridin-4-yl)-3-[(3-fluoro-2-methoxyphenyl)amino]-1H,5H,6H,7H-pyrrolo[3,2-c]pyridin-4-one; trifluoroacetic acid] | –
5 | < 100 | < 100 | < 100 | < 100 | < 100 | < 100 | COc1c(F)cccc1Nc1c(-c2ccnc3ccc(N(C)C)nc23)[nH]c2c1C(=O)NCC2 [Compound 697, 2-[6-(dimethylamino)-1,5-naphthyridin-4-yl]-3-[(3-fluoro-2-methoxyphenyl)amino]-1H,5H,6H,7H-pyrrolo[3,2-c]pyridin-4-one] | –
6 | > 1000 | 100 to 1000 | – | – | 100 to 1000 | 100 to 1000 | COc1c(Nc2c(-c3ccnc(N)n3)[nH]c3c2C(=O)NCC3)cccc1C(F)(F)F [Compound 698, 2-(2-aminopyrimidin-4-yl)-3-[[2-methoxy-3-(trifluoromethyl)phenyl]amino]-1H,5H,6H,7H-pyrrolo[3,2-c]pyridin-4-one] | –
7 | > 1000 | > 1000 | > 1000 | > 1000 | > 1000 | 100 to 1000 | COc1c(Cl)cccc1Nc1c(-c2ccnc(NCC(F)(F)F)n2)[nH]c2c1C(=O)NCC2 [Compound 701, 3-[(3-chloro-2-methoxyphenyl)amino]-2-[2-[(2,2,2-trifluoroethyl)amino]pyrimidin-4-yl]-1H,5H,6H,7H-pyrrolo[3,2-c]pyridin-4-one] | –
8 | > 1000 | 100 to 1000 | 100 to 1000 | 100 to 1000 | 100 to 1000 | 100 to 1000 | COc1c(Cl)cccc1Nc1c(-c2ccnc(NCC(F)F)n2)[nH]c2c1C(=O)NCC2 [Compound 702, 3-[(3-chloro-2-methoxyphenyl)amino]-2-[2-[(2,2-difluoroethyl)amino]pyrimidin-4-yl]-1H,5H,6H,7H-pyrrolo[3,2-c]pyridin-4-one] | –
9 | > 1000 | > 1000 | > 1000 | > 1000 | > 1000 | > 1000 | COc1c(Cl)cccc1Nc1c(-c2ccnc(NCCN(C)C)n2)[nH]c2c1C(=O)NCC2 [Compound 707, 3-((3-chloro-2-methoxyphenyl)amino)-2-(2-((2-(dimethylamino)ethyl)amino)pyrimidin-4-yl)-1,5,6,7-tetrahydro-4H-pyrrolo[3,2-c]pyridin-4-one] | –
10 | > 1000 | 100 to 1000 | 100 to 1000 | 100 to 1000 | 100 to 1000 | < 100 | COc1c(Cl)cccc1Nc1c(-c2ccnc(NC(=O)c3cccc(F)c3)n2)[nH]c2c1C(=O)NCC2 [compound 102] | –
11 | > 1000 | > 1000 | 100 to 1000 | 100 to 1000 | 100 to 1000 | < 100 | COc1c(Cl)cccc1Nc1c(-c2ccnc(NC3CC3)n2)[nH]c2c1C(=O)NCC2 [compound 112] | –
12 | > 1000 | 100 to 1000 | > 1000 | > 1000 | 100 to 1000 | 100 to 1000 | Nc1nccc(-c2[nH]c3c(c2Nc2cccc(C(F)(F)F)c2)C(=O)NCC3)n1 [compound 199] | –
13 | > 1000 | > 1000 | 100 to 1000 | 100 to 1000 | 100 to 1000 | < 100 | COc1c(Cl)cccc1Nc1c(-c2ccnc3[nH]ccc23)[nH]c2c1C(=O)NCC2 [compound 218] | –
14 | > 1000 | 100 to 1000 | – | – | 100 to 1000 | < 100 | CCc1c(Cl)cccc1Nc1c(-c2ccnc(N)n2)[nH]c2c1C(=O)NCC2 [compound 297] | –
15 | > 1000 | – | > 1000 | > 1000 | > 1000 | 100 to 1000 | Nc1nccc(-c2[nH]c3c(c2Nc2cccc4scnc24)C(=O)NCC3)n1 [compound 718, 2-(2-aminopyrimidin-4-yl)-3-(1,3-benzothiazol-4-ylamino)-1H,5H,6H,7H-pyrrolo[3,2-c]pyridin-4-one; trifluoroacetic acid] | –
16 | 100 to 1000 | < 100 | – | – | 100 to 1000 | < 100 | Cc1c(Cl)cccc1Nc1c(-c2ccnc(N)n2)[nH]c2c1C(=O)NCC2 [compound 725, 2-(2-aminopyrimidin-4-yl)-3-[(3-chloro-2-methylphenyl)amino]-1H,5H,6H,7H-pyrrolo[3,2-c]pyridin-4-one; trifluoroacetic acid] | –
17 | > 1000 | – | > 1000 | > 1000 | > 1000 | > 1000 | COc1c(Nc2c(-c3ccnc(N)n3)[nH]c3c2C(=O)NCC3)cccc1C(C)=O [compound 728, 3-[(3-acetyl-2-methoxyphenyl)amino]-2-(2-aminopyrimidin-4-yl)-1H,5H,6H,7H-pyrrolo[3,2-c]pyridin-4-one] | –

Row | Compound | IC50 [1] [nM] | IC50 [2] [nM] | IC50 [3] [nM] | IC50 [4] [nM] | IC50 [5] [nM] | IC50 [6, 7] [nM] | IC50 [6] [nM]
18 | Nc1nccc(-c2[nH]c3c(c2Nc2cccc(Cl)c2F)C(=O)NCC3)n1 [Compound 706, 2-(2-aminopyrimidin-4-yl)-3-[(3-chloro-2-fluorophenyl)amino]-1H,5H,6H,7H-pyrrolo[3,2-c]pyridin-4-one] | 100 to 1000 | < 100 | – | – | 100 to 1000 | – | < 100
